Laboratory results reported in patent US20250296960A1, “PEPTIDE COMPOSITIONS AND METHODS OF USE THEREOF” (priority 2022, published 2025).
“And” between values parts separate entries of the source, which are not always exact repeats. Equal values may be shown once. Square brackets hold non-standard residues; d marks the D form. Peptide text beside a SMILES is read from it. * marks the point of attachment. X1 = O=C(O)CCCCCCCCCCCCCCCCC(=O)N[C@@H](CCC(=O)NCCOCCOCC(=O)NCCOCCOCC(=O)NCCN1C(=O)CC(*)C1=O)C(=O)O; Aib = CC(C)(N)C(=O)O

Tests used:
human GLP-1R = biological target: T1, human GLP-1R (Homo sapiens, UniProt P43220); experiment: cAMP assay (HitHunter cAMP) in GLP-1R-expressing CHO-K1 cells (GLP-1R+ cells); type: cell-based; conditions: for Activity relative to STD peptide (%), GLP-1: Table 13, EC50 of STD peptide over EC50 of peptide; for Activity relative to GLP-1 (%), GLP-1: Table 14; for Activity relative to GLP-1 (%), GLP-1 / Activity relative to GLP-1 (%), GLP-1R: normalised to activity at GLP-1R; for Activity relative to STD peptide (%), GLP-1R: Table 18; for Activity relative to GLP-1 (%), GLP-1R: Table 19; for Relative % to native ligand, GLP-1R: Table 24, ratio of EC50 of native ligand over peptide; for Ratio vs. GLP-1R, GLP-1R: Table 25; for Relative % to non-lipidated peptide, GLP-1R: Table 26
T1 construct: host or cells: CHO-K1
Protocol: (§1) The cells were seeded in a 96-well plate at 7×10^3 cells/well using cell plate reagent and incubated the cells overnight at 37° C. and 5% CO2. To perform the cAMP detection assay, cell plating reagent were replaced with the cAMP Assay buffer. Each of the wells was then treated with the diluted peptide and incubated for 30 minutes under conditions of a temperature of 37° C. in a CO2 incubator.
(§2) After the incubation, cAMP Antibody reagent and Working cAMP detection solution to all wells. Incubate the plate for 1 hour at Room temperature in the dark. Then, cAMP Solution A was added and incubated for 3 hours at room temperature in the dark. Subsequently, the luminescence was measured using the microplate reader device.

human GCGR = biological target: T2, human GCGR (Homo sapiens, UniProt P47871); experiment: cAMP assay (HitHunter cAMP) in GCGR-expressing CHO-K1 cells (GCGR+ cells); type: cell-based; conditions: for Activity relative to STD peptide (%), Glucagon: Table 13, EC50 of STD peptide over EC50 of peptide; for Activity relative to GLP-1 (%), Glucagon: Table 14; for Activity relative to GLP-1 (%), Glucagon / Activity relative to GLP-1 (%), GCGR: normalised to activity at GLP-1R; for Activity relative to STD peptide (%), GCGR: Table 18; for Activity relative to GLP-1 (%), GCGR: Table 19; for Relative % to native ligand, GCGR: Table 24, ratio of EC50 of native ligand over peptide; for Ratio vs. GLP-1R, GCGR: Table 25; for Relative % to non-lipidated peptide, GCGR: Table 26
T2 construct: host or cells: CHO-K1
Protocol: as §1, §2

human GIPR = biological target: T3, human GIPR (Homo sapiens, UniProt P48546); experiment: cAMP assay (HitHunter cAMP) in GIPR-expressing CHO-K1 cells (GIPR+ cells); type: cell-based; conditions: for Activity relative to STD peptide (%), GIP: Table 13, EC50 of STD peptide over EC50 of peptide; for Activity relative to GLP-1 (%), GIP: Table 14; for Activity relative to GLP-1 (%), GIP / Activity relative to GLP-1 (%), GIPR: normalised to activity at GLP-1R; for Activity relative to STD peptide (%), GIPR: Table 18; for Activity relative to GLP-1 (%), GIPR: Table 19; for Relative % to native ligand, GIPR: Table 24, ratio of EC50 of native ligand over peptide; for Ratio vs. GLP-1R, GIPR: Table 25; for Relative % to non-lipidated peptide, GIPR: Table 26
T3 construct: host or cells: CHO-K1
T3 sequence (P48546 22-466): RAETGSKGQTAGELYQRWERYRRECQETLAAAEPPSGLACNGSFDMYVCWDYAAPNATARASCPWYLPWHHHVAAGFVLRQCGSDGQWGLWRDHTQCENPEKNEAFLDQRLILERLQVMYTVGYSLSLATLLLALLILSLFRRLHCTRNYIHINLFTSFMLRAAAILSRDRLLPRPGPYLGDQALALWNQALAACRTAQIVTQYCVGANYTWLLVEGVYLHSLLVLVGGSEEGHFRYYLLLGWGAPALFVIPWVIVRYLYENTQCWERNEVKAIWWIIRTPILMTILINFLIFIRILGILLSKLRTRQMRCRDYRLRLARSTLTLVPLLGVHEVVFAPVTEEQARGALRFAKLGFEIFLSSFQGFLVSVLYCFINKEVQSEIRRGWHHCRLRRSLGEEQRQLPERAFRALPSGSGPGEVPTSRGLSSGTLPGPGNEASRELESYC
Protocol: as §1, §2

[1] = Body weight loss in normal C57BL/6 mice, subcutaneous dosing; type: in vivo; conditions: for Weight loss (%): normal mice, after 48 or 72 hours
Protocol: To confirm the therapeutic effect of the peptide in vivo, polypeptides were administered to mice to measure changes in body weight. […] The peptides were delivered at 0.02% polysorbate 80 (PS80) in PBS and dosing volume was 10 mL/kg. Body weight was monitored 6 h, QD.
To confirm the therapeutic effect of the peptide in obesity, diabetes, or NASH, polypeptides were administered to mice to measure changes in food intake, blood glucose and body weight. […] In addition, a NASH animal model was prepared by feeding a high fat, high fructose, high cholesterol diet to normal C57BL/6 mice (approximately 6 weeks old) for approximately 21 weeks, and increasing the body weights of the mice to approximately 50 g on average. Thereafter, polypeptides were administered by subcutaneous injection at dose of 20 nmol/kg once every other day for 2 weeks. Body weight and food intake were measured once every other day given points of time. After 2 weeks of treatment period, mice were sacrificed, then liver weight, hepatic triglyceride, and NASH related biomarkers were measured.
DD01 administered at 40 nmol/kg, s.c. Q2D as positive control was delivered at 0.02% PS80 in PBS and dosing volume was 10 mL/kg. Body weight was monitored QD for 4 days.
The peptides were delivered at 0.02% PS80 in PBS and dosing volume was 10 mL/kg. Food intake, blood glucose, and body weight changes were monitored QD.

T2 sequence (P47871 26-477): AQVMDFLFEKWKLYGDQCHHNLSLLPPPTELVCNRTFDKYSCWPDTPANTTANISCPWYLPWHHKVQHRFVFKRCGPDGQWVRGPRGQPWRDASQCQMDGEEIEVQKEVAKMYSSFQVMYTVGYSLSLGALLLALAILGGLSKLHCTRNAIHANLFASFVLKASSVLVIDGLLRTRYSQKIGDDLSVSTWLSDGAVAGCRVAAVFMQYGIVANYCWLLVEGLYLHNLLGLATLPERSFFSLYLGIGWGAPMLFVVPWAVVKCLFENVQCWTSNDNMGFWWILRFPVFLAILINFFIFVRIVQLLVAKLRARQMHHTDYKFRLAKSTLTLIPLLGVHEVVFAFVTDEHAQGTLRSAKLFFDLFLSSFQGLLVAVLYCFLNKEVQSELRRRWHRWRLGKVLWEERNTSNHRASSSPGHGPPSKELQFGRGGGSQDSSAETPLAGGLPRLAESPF
T1 sequence (P43220 24-463): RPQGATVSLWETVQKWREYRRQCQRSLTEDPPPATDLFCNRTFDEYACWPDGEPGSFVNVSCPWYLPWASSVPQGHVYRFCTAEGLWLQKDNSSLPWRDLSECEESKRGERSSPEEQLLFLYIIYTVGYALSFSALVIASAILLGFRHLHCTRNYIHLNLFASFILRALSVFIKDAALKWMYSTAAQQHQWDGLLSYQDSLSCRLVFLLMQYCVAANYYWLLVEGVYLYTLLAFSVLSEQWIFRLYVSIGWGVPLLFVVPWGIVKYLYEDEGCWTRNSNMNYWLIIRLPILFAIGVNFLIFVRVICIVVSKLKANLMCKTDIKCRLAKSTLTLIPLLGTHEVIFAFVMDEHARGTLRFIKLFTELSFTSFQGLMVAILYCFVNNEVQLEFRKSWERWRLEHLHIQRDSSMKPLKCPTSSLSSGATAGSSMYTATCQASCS

Row | SMILES | Activity relative to STD peptide (%), GLP-1 (human GLP-1R) [%] | Activity relative to GLP-1 (%), GLP-1 (human GLP-1R) [%] | Activity relative to STD peptide (%), GLP-1R (human GLP-1R) [%] | Activity relative to GLP-1 (%), GLP-1R (human GLP-1R) [%] | Relative % to native ligand, GLP-1R (human GLP-1R) [%] | Ratio vs. GLP-1R, GLP-1R (human GLP-1R) | Relative % to non-lipidated peptide, GLP-1R (human GLP-1R) [%] | Activity relative to STD peptide (%), Glucagon (human GCGR) [%] | Activity relative to GLP-1 (%), Glucagon (human GCGR) [%] | Activity relative to STD peptide (%), GCGR (human GCGR) [%] | Activity relative to GLP-1 (%), GCGR (human GCGR) [%] | Relative % to native ligand, GCGR (human GCGR) [%] | Ratio vs. GLP-1R, GCGR (human GCGR) | Relative % to non-lipidated peptide, GCGR (human GCGR) [%] | Activity relative to STD peptide (%), GIP (human GIPR) [%] | Activity relative to GLP-1 (%), GIP (human GIPR) [%] | Activity relative to STD peptide (%), GIPR (human GIPR) [%] | Activity relative to GLP-1 (%), GIPR (human GIPR) [%] | Relative % to native ligand, GIPR (human GIPR) [%] | Weight loss (%) ([1]; 20 nmol/kg QD) | further results
1 | CC[C@H](C)[C@H](NC(=O)[C@H](CC(C)C)NC(=O)[C@H](Cc1c[nH]c2ccccc12)NC(=O)[C@H](CCC(N)=O)NC(=O)[C@@H](NC(=O)[C@H](Cc1ccccc1)NC(=O)[C@H](CC(=O)O)NC(=O)[C@H](CCCNC(=N)N)NC(=O)[C@H](C)NC(=O)[C@H](CCSC)NC(=O)[C@H](CCSC)NC(=O)[C@H](Cc1ccc(O)cc1)NC(=O)[C@H](CC(=O)O)NC(=O)[C@H](CC(C)C)NC(=O)[C@H](Cc1ccc(O)cc1)NC(=O)[C@H](CCCCN)NC(=O)[C@H](CO)NC(=O)[C@H](Cc1ccc(O)cc1)NC(=O)[C@H](CC(=O)O)NC(=O)[C@H](CO)NC(=O)[C@@H](NC(=O)[C@H](Cc1ccccc1)NC(=O)[C@@H](NC(=O)CNC(=O)[C@H](CCC(N)=O)NC(=O)C(C)(C)NC(=O)[C@@H](N)Cc1c[nH]cn1)[C@@H](C)O)[C@@H](C)O)C(C)C)C(=O)N[C@@H](CCC(=O)O)C(=O)NCC(=O)NCC(=O)N1CCC[C@H]1C(=O)N[C@@H](CO)C(=O)N[C@@H](CO)C(=O)NCC(=O)N[C@@H](C)C(=O)N1CCC[C@H]1C(=O)N1CCC[C@H]1C(=O)N1CCC[C@H]1C(=O)N[C@@H](CO)C(=O)N[C@@H](CSC1CC(=O)N(CCNC(=O)COCCOCCNC(=O)COCCOCCNC(=O)CC[C@H](NC(=O)CCCCCCCCCCCCCCCCC(=O)O)C(=O)O)C1=O)C(N)=O (some centres unmarked) [5A] | 84 | 100 | 520 | 100 | 201 | 100 | 33 | 8 | 10 | 8 | 2 | 14 | 7 | 2 | 1 | 2 | 0 | 0 | 5 | 20.1 ± 1.3% and 18.8 ± 0.9% and 19.3 ± 1.9% and 22.9 ± 1.5% | Percentage change in EC50 relative to GLP-1 at human GLP-1R (%) (human GLP-1R; Table 9, lipidated (A type) peptides): 201%; Percentage change in EC50 relative to GCG at human GCGR (%) (human GCGR; Table 10, lipidated (A type) peptides): 14%; Percentage change in EC50 relative to GIP at human GIPR (%) (human GIPR; Table 11, lipidated (A type) peptides): 5%; Ratio vs. GLP-1R, GIPR (human GIPR): 2; Relative % to non-lipidated peptide, GIPR (human GIPR): 167%; body weight loss (BWL), in words ([1]; Example 3, 20 nmol/kg QD or 30 nmol/kg Q2D s.c., 4 days): Superior body weight loss; body weight loss effect, in words ([1]; Example 5, 20 nmol/kg s.c. QD, 4 days): Superior body weight loss effects; Weight loss (%) ([1]; 10 nmol/kg QD): 15.7 ± 2.2%; Weight loss (%) ([1]; 30 nmol/kg Q2D): 14.6 ± 1.8%
2 | CC[C@H](C)[C@H](NC(=O)[C@H](CC(C)C)NC(=O)[C@H](Cc1c[nH]c2ccccc12)NC(=O)[C@H](CCC(N)=O)NC(=O)[C@@H](NC(=O)[C@H](Cc1ccccc1)NC(=O)[C@H](CC(=O)O)NC(=O)[C@H](CCCNC(=N)N)NC(=O)[C@H](CCC(N)=O)NC(=O)[C@H](CCSC)NC(=O)[C@H](CCSC)NC(=O)[C@H](Cc1ccc(O)cc1)NC(=O)[C@H](CC(=O)O)NC(=O)[C@H](CC(C)C)NC(=O)[C@H](Cc1ccc(O)cc1)NC(=O)[C@H](CCCCN)NC(=O)[C@H](CO)NC(=O)[C@H](Cc1ccc(O)cc1)NC(=O)[C@H](CC(=O)O)NC(=O)[C@H](CO)NC(=O)[C@@H](NC(=O)[C@H](Cc1ccccc1)NC(=O)[C@@H](NC(=O)CNC(=O)[C@H](CCC(N)=O)NC(=O)C(C)(C)NC(=O)[C@@H](N)Cc1ccc(O)cc1)[C@@H](C)O)[C@@H](C)O)C(C)C)C(=O)N[C@@H](CCC(=O)O)C(=O)NCC(=O)NCC(=O)N1CCC[C@H]1C(=O)N[C@@H](CO)C(=O)N[C@@H](CO)C(=O)NCC(=O)N[C@@H](C)C(=O)N1CCC[C@H]1C(=O)N1CCC[C@H]1C(=O)N1CCC[C@H]1C(=O)N[C@@H](CO)C(=O)N[C@@H](CSC1CC(=O)N(CCNC(=O)COCCOCCNC(=O)COCCOCCNC(=O)CC[C@H](NC(=O)CCCCCCCCCCCCCCCCC(=O)O)C(=O)O)C1=O)C(N)=O (some centres unmarked) [5-2A] (H-Y[Aib]QGTFTSDYSKYLDYMMQRDFVQWLIEGGPSSGAPPPSC(X1)-NH2; N-terminus assumed) | – | – | 145 | 100 | 145 | 100 | 29 | – | – | 1 | 0 | 1 | 0 | 1 | – | – | 3 | 2 | 3 | 10.4 ± 1.2% | Ratio vs. GLP-1R, GIPR (human GIPR): 2; Relative % to non-lipidated peptide, GIPR (human GIPR): 0.4%
3 | CC[C@H](C)[C@H](NC(=O)[C@H](CC(C)C)NC(=O)[C@H](Cc1c[nH]c2ccccc12)NC(=O)[C@H](CCC(N)=O)NC(=O)[C@@H](NC(=O)[C@H](Cc1ccccc1)NC(=O)[C@H](CC(=O)O)NC(=O)[C@H](CCCNC(=N)N)NC(=O)[C@H](C)NC(=O)[C@H](CCSC)NC(=O)[C@H](CCSC)NC(=O)[C@H](Cc1ccc(O)cc1)NC(=O)[C@H](CC(=O)O)NC(=O)[C@H](CC(C)C)NC(=O)[C@H](Cc1ccc(O)cc1)NC(=O)[C@H](CCCCNC(=O)COCCOCCNC(=O)COCCOCCNC(=O)CC[C@H](NC(=O)CCCCCCCCCCCCCCCCC(=O)O)C(=O)O)NC(=O)[C@H](CO)NC(=O)[C@H](Cc1ccc(O)cc1)NC(=O)[C@H](CC(=O)O)NC(=O)[C@H](CO)NC(=O)[C@@H](NC(=O)[C@H](Cc1ccccc1)NC(=O)[C@@H](NC(=O)CNC(=O)[C@H](CCC(N)=O)NC(=O)C(C)(C)NC(=O)[C@@H](N)Cc1c[nH]cn1)[C@@H](C)O)[C@@H](C)O)C(C)C)C(=O)N[C@@H](CCC(=O)O)C(=O)NCC(=O)NCC(=O)N1CCC[C@H]1C(=O)N[C@@H](CO)C(=O)N[C@@H](CO)C(=O)NCC(=O)N[C@@H](C)C(=O)N1CCC[C@H]1C(=O)N1CCC[C@H]1C(=O)N1CCC[C@H]1C(=O)N[C@@H](CO)C(=O)N[C@@H](CSC1CC(=O)N(CCCCCC(=O)NNC(=O)CCCC[C@@H]2SC[C@@H]3NC(=O)N[C@@H]32)C1=O)C(N)=O (some centres unmarked) [5C, HAibQGT FTSDY SK*YLD YMMAR DFVQW LIEGG PSSGA PPPSB#] | 202 | 100 | – | – | – | – | – | 23 | 12 | – | – | – | – | – | 8 | 4 | – | – | – | 14.1 ± 1.9% | Weight loss (%) ([1]; 10 nmol/kg QD): 9.6 ± 1.0%
